Reference: US20240109914A1, “IMIDAZOTHIAZOLE COMPOUNDS AND ANALOGS THEREOF AND METHODS FOR TREATING NEMATODE INFECTIONS IN PLANTS” (The Governing Council of The University of Toronto, priority 2021, published 2024)
Read-outs that look alike come from different tables or passages of the source.

Columns and labels:
[1] = tested on: C. elegans; assay: C. elegans dose-response (viability, minimum lethal concentration); type: in vivo, Caenorhabditis elegans; details: Caenorhabditis elegans, 72 h, L1 worms, 3 days at 20° C.
Protocol: Forty microliters of an HB101 E. coli bacterial suspension in liquid NGM (nematode growth media—see ref. 42 for the recipe) was added to each well of a 96-well flat-bottom culture plate, after which approximately 25 synchronized L1 worms, in 10 μl of M9 buffer (see ref. 43 for the recipe), were added to each well. The synchronized L1 worms were obtained from an embryo preparation performed the previous day (see ref. 43 for the protocol). For the L1 assays, 0.5 μl of test compound solution (or DMSO alone) was immediately added to the wells using a multichannel pipette; the final DMSO concentration is 1% (v/v). The worms were incubated for 3 days at 20° C. and the number of viable animals was counted.
At least three biological replicates were performed for each dose-response assay. For each biological replicate, two technical replicates were performed and the numbers of viable animals for each technical replicate were combined (i.e. ˜ 50 worms assayed per concentration). The number of viable worms at each concentration was divided by the corresponding DMSO control value to give the “relative viability” for each concentration. The “relative viability” values were then averaged across the biological replicates. Minimum lethal concentration was defined as the lowest concentration at which at least 20% of worms die.

[2] = tested on: M. incognita J2 larvae; assay: Meloidogyne incognita in vitro larval mobility assay; type: in vivo; details: 45 μM, 4 days; for Replicate 1 z-score / Replicate 2 z-score: z-score vs untreated DMSO wells; for pest or weed control at 45 µM: Meloidogyne incognita, 96 h
Protocol: M. incognita (Kofoid & White) Chitwood Race 1 (originally isolated in Maryland) was used for all experiments, and was maintained on pepper (Capsicum annuum L.) cv. PA-136 in a greenhouse as previously described^44. Infective J2 juveniles were collected as described in ref. 45. The microwell dose-response experiments were carried out similarly to previously described protocols^44,46. In brief, 50 μL of deionized water was added to the wells of 96-well polystyrene plates and 0.5 μL of test compound (or DMSO alone) was added to each well. Approximately 35 J2s were then added to each well in 49.5 μL of deionized water. The chemicals were tested at 45 μM, and the final concentration of DMSO in each well was 0.5% (v/v). DMSO alone was added to 3 separate wells. The plates were covered with plastic adhesive strips, and the lids of the plates were sealed with parafilm. The plates were incubated at 25° C. without shaking for 4 days. The percent of worms that were immobile (% immobile) was quantified by counting the number of immobile worms after 4 days of incubation, dividing the number of immobile worms by the total number of worms in the well, and then multiplying by 100. Two replicates were performed for each treatment. The z-score for each treatment was calculated using the mean and standard deviation of the untreated DMSO control wells. The average % immobile value was calculated across the two replicates. A test compound was considered most promising if the z-score was greater than 1.645 in both replicates.

[3] = tested on: M. hapla eggs; assay: Meloidogyne hapla in vitro egg hatch assay; type: in vivo; details: 45 μM; for Number of Hatched Eggs: 8 days at room temperature, about 90 eggs per well, tested once; for Number of Hatched Eggs z-score: 8 days, z-score vs 8 untreated DMSO wells
Protocol: The M. hapla were originally obtained from a soil sample of muck soil from Ste-Clotilde, Quebec, Canada. Using tweezers, egg masses were carefully removed from root material from infested carrot roots. Eggs were liberated from the egg masses using a mild sodium hypochlorite bleaching protocol, whereby egg masses were bleached with a 10% commercial bleach (sodium hypochlorite) solution for 4 minutes with vigorous shaking, and then washed 5 times with deionized water. 50 μL of deionized water was added to each well of two 96-well polystyrene culture plates, and 0.5 μL of chemical (or DMSO alone) was added to each well. Approximately 90 eggs were added to each well in 49.5 ul of deionized water. The plates were sealed with parafilm and incubated for 8 days at room temperature without shaking in a Tupperware box filled with wet paper towels. After the 8-day incubation, the number of hatched eggs was counted for each treatment and for the untreated controls. Each chemical treatment was tested only once. 8 separate untreated DMSO controls were included in the experiment. The z-score for each treatment was calculated using the mean and standard deviation of the untreated DMSO control wells.

[4] = tested on: M. incognita; assay: Meloidogyne incognita infectivity assay (soil, tomato roots); type: in vivo; details: Meloidogyne incognita, 1344 h, 45 μM in soil, 8 weeks, eggs per mg root relative to DMSO control, read-out: % effectiveness at inhibiting reproduction of M. incognita
Text: An M. incognita population originally collected from grape (Vitis vinifera) in Parlier, California, was used for all experiments, and they were maintained on tomato plants (Solanum lycopersicum ‘Rutgers’) as previously described^47. Infective J2 juveniles were collected as described in ref. 47.

[5] = tested on: tomato plants; assay: Root mass of tomato plants in the soil infectivity assay; details: 45 μM in soil, 8 weeks
Protocol: For the infectivity assays, 90 grams of soil (1:1 sand:loam mix) was added to each cell of several 6-cell plastic garden packs. The soil was drenched with 18 mL of deionized water containing dissolved test compound or DMSO alone. 2,500 infective J2 juveniles were then added to the soil in 2 mL of deionized water, for a total water volume of 20 mL. […] The DMSO concentration varied from 0.1% to 0.8% (v/v) depending on the stock concentration of the test compound. The highest DMSO concentration was used as the DMSO control. The J2s were incubated in the soil and chemical for 24 hours, after which two- to three-week old tomato seedlings were transplanted into the soil (one plant per cell). Two replicates were performed for each chemical treatment, and four replicates were done for the DMSO controls. The whole experiment was replicated twice, in two different batches on two different days, for a total of four replicates for each test compound treatment, and eight replicates for the DMSO controls. Inoculated plants were grown for 8 weeks in a greenhouse, as described^47, under long-day conditions (16-h photoperiod) with 26/18° C. day/night temperatures. After 8 weeks, the plants were destructively harvested. The tops were removed and discarded, and roots were gently washed with water to remove adhering soil. Eggs were extracted by placing rinsed roots in 0.6% sodium hypochlorite and agitating at 300 rpm for 3 min. Roots were then rinsed over nested 250—and 25.4-μm sieves, with eggs collected from the latter and suspended in water. Roots were dried in a 65° C. oven for at least 24 hours, after which dry roots were weighed. The number of eggs from each plant root was counted on a dissection microscope using a haemocytometer, and the number of eggs per milligram of root was calculated by dividing the total egg number by the mass of the dried root material. An average was taken across the replicates performed on the same day, and then normalized to the DMSO control average. […] An average percent effectiveness value was then calculated across the two different batches carried out on different days.

[6] = tested on: M. chitwoodi J2 larvae; assay: Meloidogyne chitwoodi in vitro larval mobility assay; type: in vivo; details: Meloidogyne chitwoodi, 48 h, 2 days, average of three replicates, read-out: % Immobile
Protocol: M. chitwoodi race 1 (the strain commonly found in the pacific northwest of the United States) was used for all experiments, and was maintained on tomato plants (Solanum lycopersicum ‘Rutgers’) as previously described^47. The microwell dose-response experiments were carried out similarly to previously described protocols^44,46. […] The chemicals were tested at 45 μM, and the final concentration of DMSO in each well was 0.5% (v/v). The wells were covered with a plastic adhesive strip, and the lids of the plates were sealed with parafilm. The plates were incubated at 25° C. for 2 days. The percent of worms that were immobile (% immobile) was quantified by counting the number of immobile worms after 2 days of incubation, dividing the number of immobile worms by the total number of worms in the well, and then multiplying by 100. […] The average % immobile value was calculated across the three replicates.

[7] = lowest concentration at which at least 20% of worms die, read-out: Minimum Lethal Concentration
[8] = same values in ppm, read-out: Minimum Lethal Concentration (ppm)
[9] = average of the two replicates, read-out: Average % Immobile
[10] = replicate 1, read-out: Replicate 1 % Immobile
[11] = replicate 2, read-out: Replicate 2 % Immobile

SMILES | minimal effective concentration [1, 7] [µM] | minimal effective concentration [1, 8] [µg/mL] | Replicate 1 z-score ([2]; replicate 1) | Replicate 2 z-score ([2]; replicate 2) | pest or weed control at 45 µM [2, 9] [%] | pest or weed control at 45 µM [2, 10] [%] | pest or weed control at 45 µM [2, 11] [%] | Number of Hatched Eggs [3] | Number of Hatched Eggs z-score [3] | pest or weed control at 45 µM [4] [%] | Normalized root mass (relative to DMSO control) [5] | pest or weed control at 45 µM [6] [%]
Clc1ccccc1-c1cn2ccsc2n1 [I-27] | 100 | 23.5 | [6.81] | [3.28] | 42 | 56 | 27.9 | 4 | [3.31] | 0 | 1.42 | 
Cc1c(-c2ccccc2)nc2sccn12 [I-1] | > 100 | > 21.4 |  |  |  |  |  |  |  |  |  | 48.2
Cc1cn2cc(-c3cccc(F)c3)nc2s1 [I-17] | 100 | 23.2 |  |  |  |  |  | 3 | [3.64] | 21.8 | 1.30 | 
Clc1ccc(-c2cn3ccsc3n2)cc1Cl [I-31] | 6.25 | 1.7 | [2.33] | [4.78] | 35.1 | 34.1 | 36.2 | 1 | [4.30] | 18.1 | 1.25 | 
Cc1c(-c2ccc(Cl)cc2)nc2sccn12 [I-22] | 12.5 | 3.1 | [7.55] | [4.26] | 46.5 | 59.6 | 33.3 | 1 | [4.30] |  |  | > 75
O=C(NCCc1ncc(C(F)(F)F)cc1Cl)c1ccccc1C(F)(F)F [Fluopyram, fluopyram, reference compound] |  |  | [14.82] | [21.99] | 100 | 100 | 100 | 0 | [4.63] |  |  | 100
c1cncc(-c2cn3ccsc3n2)c1 [I-45] | > 100 | > 20.1 | [1.92] | [3.20] | 29.8 | 32.1 | 27.4 |  |  |  |  | 13.8
Clc1ccc(-c2cn3ccoc3n2)cc1 [I-47, 6-(4-chlorophenyl)imidazo[2,1-b]oxazole] | 50 | 10.9 | [14.96] | [15.52] |  | 95.9 | 95.6 | 1 | [4.30] |  |  | 62.7
Cc1csc2nc(-c3ccccc3Cl)cn12 [I-29] | 100 | 24.9 |  |  |  |  |  | 4 | [3.31] | 15 | 1.14 | 
Cc1cn2cc(-c3ccccc3Cl)nc2s1 [I-30] | > 100 | > 24.9 | [8.34] | [5.62] | 52.1 | 63.5 | 40.8 |  |  | 16 | 1.30 | 
Cc1c(-c2cccc(Br)c2)nc2sccn12 [I-35] | > 50 | 14.7 |  |  |  |  |  | 2 | [3.97] | 10.2 | 1.26 | 
Cc1cn2cc(-c3cccc(Cl)c3)nc2s1 [I-26] | 25 | 6.2 | [6.47] | [1.92] | 37.4 | 54.4 | 20.4 |  |  | 0 | 1.43 | 
Fc1cccc(-c2cn3ccsc3n2)c1 [I-14] | 100 | 21.8 | [15.43] | [13.11] | ≥ 75 | 98.2 | 82.2 | 1 | [4.30] | 17.6 | 1.28 | 
Cc1c(-c2cccc(Cl)c2)nc2sccn12 [I-24] | 100 | 24.9 | [1.68] | [4.78] | 33.6 | 30.9 | 36.2 |  |  | 23.6 | 1.34 | 
Cc1csc2nc(-c3cccc(Cl)c3)cn12 [I-25] | > 100 | > 24.9 |  |  |  |  |  | 4 | [3.31] | 24.6 | 1.27 | 
Cc1cn2cc(-c3ccccc3F)nc2s1 [I-21] | 50 | 11.6 | [5.78] | [5.62] | 45.9 | 51 | 40.8 |  |  | 24.4 | 1.24 | 
